Laboratory results reported in patent publication US20160243112A1, “TREATMENTS FOR ALZHEIMER'S RELATED DISEASES AND DISORDERS” (Alkermes, Inc., priority 2015, published 2016).
Structures can show the parent of a compound that is named as a salt.

Assays:
[1] = target: T1, cloned human NMDA receptor (NR1/NR2A) channel (Homo sapiens, UniProt Q05586+Q12879); test: FLIPR Ca++ flux assay in NR1/NR2A expressing HEK cells; assay type: cell-based
T1 construct: expressed in transfected cells; host or cells: HEK293
Method: (§1) The NMDA receptor is an ionotropic glutamate receptor that forms a cation-selective channel. Test articles were assessed for their ability to inhibit calcium flux produced by a positive control agonist (100 μM Glutamic acid+20 μM Glycine) in cloned human NMDA receptor (NR1/NR2A) channel (encoded by the GRIN1 and GRIN2A genes) expressing HEK293 cells. A Fluo-8 calcium kit and a Fluorescence Imaging Plate Reader ([…]™) instrument was used to measure calcium flux. The potential antagonist effect of each test article was measured at eight concentrations (0.1, 0.3, 1, 3, 10, 30, 100, 300 μM; n=4 per concentration) after activating NR1/NR2A channel with the positive control agonist (100 μM Glutamic acid+20 μM Glycine).
as §1

[2] = target: T2, PCP binding site of NMDA receptors (Rattus norvegicus, UniProt P35439); test: CEREP NMDA PCP site binding study (PCP antagonist radioligand assay #0124)
T2 construct: NMDA receptors in rat cerebral cortex cells; tissue CEREP #0124; host or cells: rat cerebral cortex
Method: The specific ligand binding to the receptors is defined as the difference between the total binding and the nonspecific binding determined in the presence of an excess of unlabelled ligand. […] The inhibition constants (Ki) were calculated using the Cheng Prusoff equation (Ki=IC50/(1+(L/KD)), where L=concentration of radioligand in the assay, and KD=affinity of the radioligand for the receptor).

[3] = system: olfactory bulbectomized (OBX) rat; test: Efficacy study in an animal model of agitation: open field locomotor activity in the OBX rat; assay type: in vivo; conditions: OBX rats; single s.c. injection 30 min before test; Compound-1 10 and 30 mg/kg
Method: The objective of this study is to assess the efficacy of Compound-1 in an animal model of agitation: the olfactory bulbectomized (OBX) rat.
(§2) The study design included 4 treatment groups. Rats were assigned to their respective treatments by stratifying into groups based on body weight and arena. The experiment was carried out on a single day.
(§3) Forty-four male Sprague Dawley rats (Charles River, Raleigh, N.C.) were used for this study. Rats were single housed and weighed 200-225 g upon receipt. All rats were maintained on a 12 h light-12 h dark cycle with free access to food and water. Husbandry was conducted in accordance with the 2011 Guide for the Care and Use of Laboratory Animals (NRC, 2011).
(§4) Subcutaneous doses were administered via flank injection at a dose volume of 1 mL/kg 30 minutes before behavioral testing. Dose volumes were adjusted for the weight of the animal on the day of the experiment.
(§5) OBX rats and their weight-matched non-surgery controls were allowed to acclimate/recover from the surgical procedure for at least 4 weeks to permit the onset of the behavioral deficit. Rats were handled periodically throughout this acclimation period to prevent excessive aggression. […]
The following parameters were assayed: • 1. […] The behavior was recorded and analyzed by an automated tracking system (Med Associates). […]

[4] = system: olfactory bulbectomized (OBX) rat; test: Efficacy study in an animal model of anxiety: marble burying in the OBX rat; assay type: in vivo; conditions: OBX rats; 10 mg/kg single s.c. injection 30 min before 20 min test
Method: Rodents will also bury non-aversive unconditioned objects, such as food pellets and glass marbles; an effect reversible by compounds that have anxiolytic efficacy.
as §2
as §3, with “Thirty-two” for “Forty-four”
as §4, §5
Marbles were considered “buried” if more than ⅔ surface was not visible. The number of uncovered/buried marbles was recorded and photographed by experimenter blind to drug treatment. […]

Sprague Dawley rat = test: Open field test of locomotor activity in non-olfactory bulbectomized Sprague Dawley rats; assay type: in vivo; conditions: 10 mg/kg s.c. 30 min before 30 min test, vs vehicle
From the text: Significant changes in locomotor activity may indicate an abnormal response to a drug (e.g., psychomotor retardation, agitation or behavioral sensitization). The Open field test is a commonly used qualitative and quantitative measure of general locomotor activity and willingness to explore in rodents. The objective of this study is to evaluate the effect of Compound-1 on locomotor activity in the (non-olfactory bulbectomized) rat. This study serves as a control experiment for the agitation and anxiety assays described above.
The study design included 2 treatment groups. Rats were randomized into their respective treatments. The experiment was carried out on a single day.
as §3, with “Sixteen” for “Forty-four”
as §4
Rats were allowed to acclimate to the facility for 1 week before behavioral testing. Rats were placed in the Open field arena 30 minutes post-drug administration for a 30 min test. This experiment was run under dim light and low white noise conditions.
The following parameters were assayed:
1. Distance travelled (cm)
3. Stereotypy counts (arbitrary unit)
4. Number of rears (exploratory behavior)
5. Average velocity (cm/s)
The behavior was recorded and analyzed by an automated tracking system (Med Associates). GraphPad Prism 6.0 was used to prepare graphs and to perform data analysis including one-way ANOVA or t-test analysis of locomotor activity where appropriate.

[5] = Repeat dose general toxicology studies of up to six weeks; assay type: in vivo; conditions: rats, daily oral gavage up to six weeks
From the text: NMDA antagonists are associated with a wide range of serious toxicities, including neurodegeneration. However, the therapeutic index of an NMDA antagonist can vary widely and is correlated with a property referred to as trapping at the drug binding site within the NMDA receptor channel. Higher trapping agents show increased toxicity relative to lower trapping agents and a reduced therapeutic index. Compounds of Formula I, or a Compound of Table 1, preferably Compound-1, have been evaluated in repeat dose general toxicology studies of up to six weeks in duration in both rats and dogs. In both species, Compounds of Formula I, or a Compound of Table 1, preferably Compound-1, were given daily by oral gavage at doses producing plasma concentrations of the drug that would exceed the expected human therapeutic exposures by at least 30-fold. […] This observation is consistent with the concept of the low trapping nature of Compounds of Formula I, or a Compound of Table 1, preferably Compound-1, and an improved therapeutic index over other NMDA antagonists characterized as high trapping agents.

T1 sequence (Q12879 23-1464, other chains not shown): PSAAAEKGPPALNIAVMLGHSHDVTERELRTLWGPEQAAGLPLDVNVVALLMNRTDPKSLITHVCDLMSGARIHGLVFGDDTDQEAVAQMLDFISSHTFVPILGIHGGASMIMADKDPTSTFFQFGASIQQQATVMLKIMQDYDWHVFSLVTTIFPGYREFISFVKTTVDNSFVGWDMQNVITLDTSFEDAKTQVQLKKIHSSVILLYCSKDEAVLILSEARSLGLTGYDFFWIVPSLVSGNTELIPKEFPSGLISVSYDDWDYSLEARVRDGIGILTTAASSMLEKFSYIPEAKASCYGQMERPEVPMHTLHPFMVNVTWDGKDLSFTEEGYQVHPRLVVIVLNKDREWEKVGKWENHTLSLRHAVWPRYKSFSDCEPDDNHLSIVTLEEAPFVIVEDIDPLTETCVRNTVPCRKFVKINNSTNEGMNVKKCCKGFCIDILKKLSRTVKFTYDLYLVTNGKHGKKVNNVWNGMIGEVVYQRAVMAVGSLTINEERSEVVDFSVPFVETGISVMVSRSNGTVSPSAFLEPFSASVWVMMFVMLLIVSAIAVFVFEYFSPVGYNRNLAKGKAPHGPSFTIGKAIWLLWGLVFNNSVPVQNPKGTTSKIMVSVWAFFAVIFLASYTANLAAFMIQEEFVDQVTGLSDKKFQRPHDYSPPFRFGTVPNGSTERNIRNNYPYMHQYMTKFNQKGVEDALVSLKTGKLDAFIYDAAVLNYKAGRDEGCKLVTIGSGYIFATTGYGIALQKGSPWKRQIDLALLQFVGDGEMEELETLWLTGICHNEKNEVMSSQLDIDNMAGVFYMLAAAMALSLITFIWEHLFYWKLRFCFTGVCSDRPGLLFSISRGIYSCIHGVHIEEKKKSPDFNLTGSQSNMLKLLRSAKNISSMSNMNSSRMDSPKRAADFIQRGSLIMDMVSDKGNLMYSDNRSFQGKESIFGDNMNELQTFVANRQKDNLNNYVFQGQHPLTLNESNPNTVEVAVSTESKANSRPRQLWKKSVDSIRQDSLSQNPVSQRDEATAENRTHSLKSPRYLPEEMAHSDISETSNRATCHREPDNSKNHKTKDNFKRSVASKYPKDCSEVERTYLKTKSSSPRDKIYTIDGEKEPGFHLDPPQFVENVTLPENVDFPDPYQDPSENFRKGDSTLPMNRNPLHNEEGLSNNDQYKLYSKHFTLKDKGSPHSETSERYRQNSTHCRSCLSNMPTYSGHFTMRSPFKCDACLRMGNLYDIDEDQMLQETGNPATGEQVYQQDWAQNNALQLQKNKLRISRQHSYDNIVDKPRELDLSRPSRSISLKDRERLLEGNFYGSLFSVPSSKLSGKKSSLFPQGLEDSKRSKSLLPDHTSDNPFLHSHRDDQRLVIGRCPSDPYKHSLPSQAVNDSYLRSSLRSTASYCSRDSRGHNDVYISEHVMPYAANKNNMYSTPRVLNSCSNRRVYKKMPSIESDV

| Structure (SMILES) | IC50 [1] | also measured |
| --- | --- | --- |
| CN1CC[C@@]23CCCCC2[C@@H]1Cc1ccc(-c2ccsn2)cc13 (stereo partly shown) | 15 µM |  |
| CN1CC[C@@]23CCCCC2[C@@H]1Cc1ccc(-c2nccs2)cc13 (stereo partly shown) | 33 µM |  |
| CN1CC[C@@]23CCCCC2[C@@H]1Cc1ccc(-c2nnc(N)s2)cc13 (stereo partly shown) | 35.5 µM |  |
| CN1CC[C@@]23CCCC[C@@H]2[C@@H]1Cc1ccc(Br)cc13 | 49 µM |  |
| CN1CC[C@@]23CCCCC2[C@@H]1Cc1ccc(-c2cscn2)cc13 (stereo partly shown) | 50 µM |  |
| CN1CC[C@@]23CCCCC2[C@@H]1Cc1ccc(-c2nnc(CO)s2)cc13 (stereo partly shown) | 47.5 µM |  |
| CN1CC[C@@]23CCCCC2[C@@H]1Cc1ccc(-c2nnc(C(F)(F)F)s2)cc13 (stereo partly shown) | > 500 µM |  |
| O=C(O)c1ccc2c(c1)[C@]13CCCC[C@@H]1[C@H](C2)N(CCc1ccccc1)CC3 | > 500 µM |  |
| Cc1nnc(-c2ccc3c(c2)[C@]24CCCCC2[C@H](C3)N(CCc2ccccc2)CC4)s1 (stereo partly shown) | > 500 µM |  |
| CN1CC[C@@]23CCCCC2[C@@H]1Cc1ccc(-c2nnc(C(C)(C)C)s2)cc13 (stereo partly shown) | > 500 µM |  |
| CN1CC[C@@]23CCCCC2[C@@H]1Cc1ccc(-c2nnc(C(C)(C)O)s2)cc13 (stereo partly shown) | > 500 µM |  |
| Cc1nnc(-c2ccc3c(c2)[C@]24CCCC[C@@H]2[C@H](C3)N(C)CC4)o1 | > 500 µM |  |
| CN1CC[C@@]23CCCC[C@@H]2[C@@H]1Cc1ccc(C(N)=O)cc13 [Compound-1] | 225 µM | Ki [2]: 7.4 µM; mode of binding to the PCP binding site ([2]; rat cerebral cortex): binds competitively; locomotor response (distance travelled) in open field [3]: blocked this hyperlocomotor response; burying response (marbles buried) [4]: blocked this burying response; effect on average velocity (Sprague Dawley rat): no effect; effect on jumping behavior (Sprague Dawley rat): no effect; effect on locomotor activity (distance travelled) (Sprague Dawley rat): no effect; effect on rearing (Sprague Dawley rat): no effect; effect on stereotypy (Sprague Dawley rat): no effect; clinical changes ([5]; highest doses evaluated): increased bone fractures and abnormalities in incisors; neurodegeneration ([5]; when clinical signs were present): no evidence of neurodegeneration |
| CN1CC[C@@]23CCCC[C@@H]2[C@@H]1Cc1ccc(-c2nncs2)cc13 [Compound-2, 2-((4bS,9S)-11-methyl-6,7,8,8a,9,10-hexahydro-5H-9,4b-(epiminoethano)phenanthren-3-yl)-1,3,4-thiadiazole hydrochloride] | 225 µM |  |
| Cc1nnc(-c2ccc3c(c2)[C@]24CCCC[C@@H]2[C@H](C3)N(C)CC4)s1 [Compound-3, 2-methyl-5-((4bS,9S)-11-methyl-6,7,8,8a,9,10-hexahydro-5H-9,4b-(epiminoethano)phenanthren-3-yl)-1,3,4-thiadiazole hydrochloride] | 94 µM |  |
| COc1ccc2c(c1)[C@]13CCCC[C@@H]1[C@H](C2)N(C)CC3 [Dextromethorphan (DMX), Dextromethorphan, reference compound] | 107 µM | locomotor response (distance travelled) in open field [3]: blocks the locomotor response; burying response (marbles buried) [4]: blocked this burying response |
| CNC1(c2ccccc2Cl)CCCCC1=O (stereo not shown) [Ketamine, reference compound] | 57.2 µM |  |
| c1ccc(C2(N3CCCCC3)CCCCC2)cc1 [Phencyclidine (PCP), Phencyclidine, reference compound] | 7.5 µM |  |
